EC50 data for 31 compounds are collected here from patent publication US12503436B2, “Compounds and compositions for treating conditions associated with STING activity” (NOVARTIS PHARMA AG, priority 2021, dated 2025).

For the assay, the target named is STING (Homo sapiens, UniProt Q86WV6, G230A/H232R/R293Q/R71H). Nature of the assay: STING reporter assay in THP1-Dual KO-IFNAR2 cells (2′3′cGAMP stimulation, luciferase reporter). Conditions: 15 μM 2′3′cGAMP stimulation, 24 h, read-out: Pharmaron, THP1_IFNAR2 STING 24 h Luci Normalized: GeoMean EC50. The assay is classed as cell-based. A digest of the protocol: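 THP1-Dual KO-IFNAR2 cells (2×10E6 cells/mL) with compounds at 0.0017-100 μM final, stimulated with 15 μM final 2′3′cGAMP delivered by Lipofectamine 2000; 24 h at 37 °C. Luciferase in supernatant read with QUANTI-Luc Plus; EC50 derived from luminescence.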
STING, sequence (Q86WV6 whole entry R71H/G230A/H232R/R293Q): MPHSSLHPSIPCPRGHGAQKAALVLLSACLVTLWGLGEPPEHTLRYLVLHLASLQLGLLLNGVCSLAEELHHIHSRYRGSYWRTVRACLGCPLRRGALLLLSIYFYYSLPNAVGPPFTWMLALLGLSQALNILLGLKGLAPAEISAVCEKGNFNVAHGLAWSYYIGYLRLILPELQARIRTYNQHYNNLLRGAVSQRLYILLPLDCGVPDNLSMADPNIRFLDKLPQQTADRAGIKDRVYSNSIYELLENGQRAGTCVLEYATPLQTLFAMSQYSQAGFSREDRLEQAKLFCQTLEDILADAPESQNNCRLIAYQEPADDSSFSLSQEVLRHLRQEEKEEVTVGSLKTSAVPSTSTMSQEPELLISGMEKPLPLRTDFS
Usually EC50 stands for the concentration at which the effect is half-maximal. Regarding `CC1(C)CC1C(=O)Nc1c[nH]c2ccc(O[C@H]3C[C@H](c4ccc(C(F)(F)F)cc4)C3)cc12` (stereo partly drawn) [Compound 563, 2,2-dimethyl-N-(5-(trans-3-(4-(trifluoromethyl)phenyl)cyclobutoxy)-1H-indol-3-yl)cyclopropane-1-carboxamide], the EC50 was in the range of 40 to 200 nM.
With `CC1(C(=O)Nc2c[nH]c3ccc(O[C@H]4C[C@H](c5ccc(C(F)(F)F)cc5)C4)cc23)CCC1` [Compound 564, 1-methyl-N-(5-(trans-3-(4-(trifluoromethyl)phenyl)cyclobutoxy)-1H-indol-3-yl)cyclobutane-1-carboxamide] the figure was 40 to 200 nM; with `N#CC1(C(=O)Nc2c[nH]c3ccc(O[C@H]4C[C@H](c5ccc(C(F)(F)F)cc5)C4)cc23)CC1` [Compound 565, 1-cyano-N-(5-(trans-3-(4-(trifluoromethyl)phenyl)cyclobutoxy)-1H-indol-3-yl)cyclopropane-1-carboxamide], 200 to 1000 nM; with `CC1(C(=O)Nc2c[nH]c3ccc(O[C@H]4C[C@H](c5ccc(C(F)(F)F)cc5)C4)cc23)CNC1` [Compound 567, 3-methyl-N-(5-(trans-3-(4-(trifluoromethyl)phenyl)cyclobutoxy)-1H-indol-3-yl)azetidine-3-carboxamide], 1000 to 5000 nM.
For the compound `CC(C)(C)OC(=O)N1CC(C)(C(=O)Nc2c[nH]c3ccc(O[C@H]4C[C@H](c5ccc(C(F)(F)F)cc5)C4)cc23)C1` [Compound 568, tert-butyl 3-methyl-3-((5-(trans-3-(4-(trifluoromethyl)phenyl)cyclobutoxy)-1H-indol-3-yl)carbamoyl)azetidine-1-carboxylate], the EC50 was 200 to 1000 nM.
Turning to `CC1(C(=O)Nc2c[nH]c3ccc(OCCc4ccc(C(F)(F)F)cc4)cc23)CNC1` [Compound 569, 3-methyl-N-(5-(4-(trifluoromethyl)phenethoxy)-1H-indol-3-yl)azetidine-3-carboxamide], the EC50 was 1000 to 5000 nM.
For the compound `CC(C)(C)OC(=O)N1CC(C)(C(=O)Nc2c[nH]c3ccc(OCCc4ccc(C(F)(F)F)cc4)cc23)C1` [Compound 570, tert-butyl 3-methyl-3-((5-(4-(trifluoromethyl)phenethoxy)-1H-indol-3-yl)carbamoyl)azetidine-1-carboxylate], the EC50 was in the range of 200 to 1000 nM.
Under `O=C(Nc1c[nH]c2ccc(O[C@H]3C[C@H](c4ccc(C(F)(F)F)cc4)C3)cc12)C1CC1(F)Cl` (stereo partly drawn) [Compound 571, 2-chloro-2-fluoro-N-(5-(trans-3-(4-(trifluoromethyl)phenyl)cyclobutoxy)-1H-indol-3-yl)cyclopropane-1-carboxamide] stands 200 to 1000 nM; under `COC1CC(C(=O)Nc2c[nH]c3ccc(O[C@H]4C[C@H](c5ccc(C(F)(F)F)cc5)C4)cc23)C1` (stereo partly drawn) [Compound 572, 3-methoxy-N-(5-(trans-3-(4-(trifluoromethyl)phenyl)cyclobutoxy)-1H-indol-3-yl)cyclobutane-1-carboxamide], 40 to 200 nM; under `O=C(Nc1c[nH]c2ccc(O[C@H]3C[C@H](c4ccc(C(F)(F)F)cc4)C3)cc12)C1CC(O)C1` (stereo partly drawn) [Compound 573, 3-hydroxy-N-(5-(trans-3-(4-(trifluoromethyl)phenyl)cyclobutoxy)-1H-indol-3-yl)cyclobutane-1-carboxamide], 40 to 200 nM.
On to `O=C(Nc1c[nH]c2ccc(O[C@H]3C[C@H](c4ccc(C(F)(F)F)cc4)C3)cc12)C1CC1(F)F` (stereo partly drawn) [Compound 574, 2,2-difluoro-N-(5-(trans-3-(4-(trifluoromethyl)phenyl)cyclobutoxy)-1H-indol-3-yl)cyclopropane-1-carboxamide], for which the EC50 fell in the range of 40 to 200 nM.
Take `O=C(Nc1c[nH]c2ccc(O[C@H]3C[C@@H](c4ccc(C(F)(F)F)cc4)C3)cc12)C1CC1(F)Cl` (stereo partly drawn) [Compound 575, 2-chloro-2-fluoro-N-(5-(cis-3-(4-(trifluoromethyl)phenyl)cyclobutoxy)-1H-indol-3-yl)cyclopropane-1-carboxamide]: the EC50 is 200 to 1000 nM.
On to `O=C(Nc1c[nH]c2ccc(O[C@H]3C[C@@H](c4ccc(C(F)(F)F)cc4)C3)cc12)C1CC(F)C1` (stereo partly drawn) [Compound 576, 3-fluoro-N-(5-(cis-3-(4-(trifluoromethyl)phenyl)cyclobutoxy)-1H-indol-3-yl)cyclobutane-1-carboxamide], for which the concentration for a half-maximal effect (EC50) fell in the range of 40 to 200 nM.
For `O=C(Nc1c[nH]c2ccc(OCC[C@@H]3C[C@@H]4CN(CC(F)(F)F)C[C@@H]4C3)cc12)C1CC1(F)Cl` (stereo partly drawn) [Compound 577, 2-chloro-2-fluoro-N-(5-(2-((3aR,5r,6aS)-2-(2,2,2-trifluoroethyl)octahydrocyclopenta[c]pyrrol-5-yl)ethoxy)-1H-indol-3-yl)cyclopropane-1-carboxamide], the EC50 was in the range of 200 to 1000 nM.
As for `CC(=O)Nc1c[nH]c2c(Br)cc(CCOc3ccc(C(F)(F)F)cc3)cc12` [Compound 578, N-(7-bromo-5-(2-(4-(trifluoromethyl)phenoxy)ethyl)-1H-indol-3-yl)acetamide], the EC50 fell in the range of 1000 to 5000 nM.
Consider `CC1(C(=O)Nc2c[nH]c3ccc(O[C@H]4C[C@@H](c5ccc(C(F)(F)F)nc5)C4)cc23)CC1` [Compound 579, 1-methyl-N-(5-(cis-3-(6-(trifluoromethyl)pyridin-3-yl)cyclobutoxy)-1H-indol-3-yl)cyclopropane-1-carboxamide], for which the EC50 is 200 to 1000 nM.
Regarding `CC(=O)Nc1c[nH]c2ccc(CCOc3cccnc3)cc12` [Compound 581, N-(5-(2-(pyridin-3-yloxy)ethyl)-1H-indol-3-yl)acetamide], the EC50 lay in the range of 5000 to 100000 nM.
As to `N#C[C@@H]1C[C@@H]1C(=O)Nc1c[nH]c2ccc(CCOc3ccc(C(F)(F)F)cc3)cc12` [Compound 582, (1S,2R)-2-cyano-N-(5-(2-(4-(trifluoromethyl)phenoxy)ethyl)-1H-indol-3-yl)cyclopropane-1-carboxamide], the EC50 lay in the range of 40 to 200 nM.
Regarding `O=C(Nc1c[nH]c2ccc(OCc3ccc(C(F)(F)F)cc3)cc12)C1CC(F)(F)C1` [Compound 584, 3,3-difluoro-N-(5-((4-(trifluoromethyl)benzyl)oxy)-1H-indol-3-yl)cyclobutane-1-carboxamide], the EC50 lay in the range of 200 to 1000 nM.
Under `N#C[C@H]1C[C@@H]1C(=O)Nc1c[nH]c2ccc(OCc3ccc(C(F)(F)F)cc3)cc12` [Compound 585, (1S,2S)-2-cyano-N-(5-((4-(trifluoromethyl)benzyl)oxy)-1H-indol-3-yl)cyclopropane-1-carboxamide] stands 200 to 1000 nM; under `N#CC1(C(=O)Nc2c[nH]c3ccc(OCc4ccc(C(F)(F)F)cc4)cc23)CC1` [Compound 586, 1-cyano-N-(5-((4-(trifluoromethyl)benzyl)oxy)-1H-indol-3-yl)cyclopropane-1-carboxamide], 200 to 1000 nM.
As for `O=C(Nc1c[nH]c2ccc(O[C@H]3C[C@@H](c4ccc(C(F)(F)F)cc4)C3)cc12)C1CC(F)(F)C1` [Compound 587, 3,3-difluoro-N-(5-(cis-3-(4-(trifluoromethyl)phenyl)cyclobutoxy)-1H-indol-3-yl)cyclobutane-1-carboxamide], the EC50 was in the range of 40 to 200 nM.
With `O=C(Nc1c[nH]c2ccc(OCC[C@@H]3C[C@@H]4CN(CC(F)(F)F)C[C@@H]4C3)cc12)C1CC(F)(F)C1` [Compound 588, 3,3-difluoro-N-(5-(2-((3aR,5r,6aS)-2-(2,2,2-trifluoroethyl)octahydrocyclopenta[c]pyrrol-5-yl)ethoxy)-1H-indol-3-yl)cyclobutane-1-carboxamide] the figure was 40 to 200 nM; with `O=C(Nc1c[nH]c2ccc(OCC[C@@H]3C[C@@H]4CN(CC(F)(F)F)C[C@@H]4C3)cc12)C1CC(F)C1` (stereo partly drawn) [Compound 589, 3-fluoro-N-(5-(2-((3aR,5r,6aS)-2-(2,2,2-trifluoroethyl)octahydrocyclopenta[c]pyrrol-5-yl)ethoxy)-1H-indol-3-yl)cyclobutane-1-carboxamide], 40 to 200 nM; with `CN1CC(C(=O)Nc2c[nH]c3ccc(CCOc4ccc(C(F)(F)F)cc4)cc23)C1` [Compound 590, 1-methyl-N-(5-(2-(4-(trifluoromethyl)phenoxy)ethyl)-1H-indol-3-yl)azetidine-3-carboxamide], 1000 to 5000 nM.
Under `CC(C)(C)CC(=O)Nc1c[nH]c2ccc(CCOc3ccc(C(F)(F)F)cc3)cc12` [Compound 591, 3,3-dimethyl-N-(5-(2-(4-(trifluoromethyl)phenoxy)ethyl)-1H-indol-3-yl)butanamide] stands 200 to 1000 nM.
For `O=C(Nc1c[nH]c2ccc(CCOc3ccc(C(F)(F)F)cc3)cc12)C1CC1` [Compound 592, N-(5-(2-(4-(trifluoromethyl)phenoxy)ethyl)-1H-indol-3-yl)cyclopropanecarboxamide], the EC50 lay in the range of 200 to 1000 nM.
As for `O=C(Nc1c[nH]c2ccc(CCOc3ccc(C(F)(F)F)cc3)cc12)C1CC(F)C1` (stereo not shown) [Compound 593, 3-fluoro-N-(5-(2-(4-(trifluoromethyl)phenoxy)ethyl)-1H-indol-3-yl)cyclobutane-1-carboxamide], the EC50 fell in the range of 40 to 200 nM.
Turning to `CC1(C(=O)Nc2c[nH]c3ccc(CCOc4ccc(C(F)(F)F)cc4)cc23)CCOCC1` [Compound 594, 4-methyl-N-(5-(2-(4-(trifluoromethyl)phenoxy)ethyl)-1H-indol-3-yl)tetrahydro-2H-pyran-4-carboxamide], the EC50 lay within 200 to 1000 nM.
With `O=C(Nc1c[nH]c2ccc(CCOc3ccc(C(F)(F)F)cc3)cc12)C1CC1(F)F` (stereo not shown) [Compound 595, 2,2-difluoro-N-(5-(2-(4-(trifluoromethyl)phenoxy)ethyl)-1H-indol-3-yl)cyclopropane-1-carboxamide] the figure was 40 to 200 nM.
Turning to “cis-3-hydroxy-N-(5-(2-((3aR,5r,6aS)-2-(2,2,2-trifluoroethyl)octahydrocyclopenta[c]pyrrol-5-yl)ethoxy)-1H-indol-3-yl)cyclobutane-1-carboxamide [Compound 344]”, the EC50 was 200 to 1000 nM.
